Reference: patent US20230117947A1, “Seed Treatment Methods and Compositions” (Novozymes BIOAG A/S, priority 2011, published 2023)
Marks after values point to notes of the source that are not given here.

Columns and labels:
Assay type in all cases: in vivo
[1] = system: soybean seed (Stine 52118); experiment: Field trial (Example 2): grain yield from treated soybean seed, Whitewater, Wis.; conditions: for GRAIN YIELD @ 13%: 4.8 fl oz/cwt, 13% seed moisture
Experimental: A soybean trial was conducted to evaluate embodiments of the present invention on grain yield when applied on soybean seed. The field trial site was located near Whitewater, Wis. and characterized by Milford silty clay loam soil. […] The plant signal molecules used in the trial were same as in Example 1. The soybean seed used in the study was Stine 52118. The plant signal molecules were sprayed onto seeds with/without dilution at a rate of 4.8 fl oz/cwt. The study was conducted in a randomized complete block design, with a plot size of 10 feet by 50 feet (0.011 acres), with 7.5-inch row spacing. Four replications were conducted. Seed were treated with the plant signal molecules 4.5 or 5 months prior to planting and just prior to planting, and were planted at a depth of 1 inch and at a seedling rate of 225,000 seeds per acre using a John Deere 750 NT grain drill. The pesticides Extreme® and AMPS® were both applied 10 days prior to planting (pre-emergence) at rates of 3.0 pt and 2.5 lb, respectively. Assure II®, Roundup WeatherMax® and AMPS® were all applied 45-days post-planting (post-emergent), at rates of 6.0 oz, 21 oz and 2.5 lb, respectively. Plants were harvested 4 months and 21 days after planting. The Control seed was treated with an amount (wt) of water, corresponding to the amount (wt) of the experimental signal molecule composition (signal molecule+carrier). The Control seed was stored under the same conditions as the experimental seed prior to planting and planted at the same time as the experimental seed in the same soil.

[2] = system: soybean seed (Stine S2118); experiment: Field trial (Example 1): grain yield from treated soybean seed, Whitewater, Wis.; conditions: for GRAIN YIELD @ 13%: 4.8 fl oz/cwt, 13% seed moisture
Experimental: A field trial was conducted to evaluate embodiments of the present invention on grain yield when applied on soybean seed. The field trial site was located near Whitewater, Wis. and characterized by Milford silty clay loam soil.
The plant signal molecules used in the trial were Optimize®, a non-commercial grade of Optimize® (NI-50S-1), pure LCO-V (C18:1, MeFuc)(NI-50GREN-1) and a non-commercial grade of LCO-V (C18:1, MeFuc)(NI-50S-2CF). The soybean seed used in the study was Stine S2118. The plant signal molecules were sprayed onto seeds with/without dilution at a rate of 4.8 fl oz/cwt.
The study was conducted in a randomized complete block design, with a plot size of 10 feet by 50 feet (0.011 acres), with 7.5-inch row spacing. Four replications were conducted. Seed were treated with the plant signal molecules 4.5 or 5 months prior to planting and just prior to planting, and were planted at a depth of 1 inch and at a seedling rate of 225,000 seeds per acre using a John Deere 750 NT grain drill. The pesticides Extreme® and AMPS® were both applied 11 days prior to planting (pre-emergence) at rates of 3.0 pt and 2.5 lb, respectively. Assure II®, Roundup WeatherMax® and AMPS® were all applied 46-days post-planting (post-emergent), at rates of 6.0 oz, 21 oz and 2.5 lb, respectively. Plants were harvested 4 months and 20 days after planting.
The Control seed was treated with an amount (wt) of water, corresponding to the amount (wt) of the experimental signal molecule composition (signal molecule+carrier). The Control seed was stored under the same conditions as the experimental seed prior to planting and planted at the same time as the experimental seed in the same soil.

Soybean seeds = experiment: Greenhouse test (Example 3): root length and root volume of seedlings from stored treated seed (Winrhizo scanner); conditions: for % increase in root length / % increase in root vol.: versus Control; for Root Vol. / Root length: 10^−7M, stored at 15° C., harvested after 10 days
Experimental: Soybean seeds treated with 10^−7M pure LCO-V (C18:1, MeFuc) and stored at 15° C. Treated seeds and non-treated seeds (control) were planted 1 and 12 months after treatment in greenhouse pots containing sand:perlite (1:1 mixture). Seedlings were grown for 10 days after seed plantings then seedlings were harvested, their roots cleaned and measured on the Winrhizo® scanner. The Control seed was treated with an amount (wt) of water, corresponding to the amount (wt) of the experimental signal molecule composition (signal molecule+carrier). The Control seed was stored under the same conditions as the experimental seed prior to planting and planted at the same time as the experimental seed in the same soil.

[3] = 5 months pre-planting (Group 5) versus at planting (Group 4)
[4] = seed treated 5 months prior to planting
[5] = planted 1 month after treatment

In the case of LCO-V (C18:1, MeFuc) [NI-50GREN-1], the “decrease in soybean yield” value [1, 3] is reported as 1.8 bushels/acre, the “GRAIN YIELD @ 13%” value [1, 4] is reported as 64.0 bushels/acre and the “GRAIN YIELD @ 13%” value ([1]; seed treated at planting) is reported as 65.8 bushels/acre. For the same substance, the “increase in soybean yield” value [2, 3] was 8.3 bushels/acre, the “GRAIN YIELD @ 13%” value [2, 4] was 70.5 bushels/acre and the “GRAIN YIELD @ 13%” value ([2]; seed treated at planting) was 62.2 bushels/acre. The “% increase in root length” value (Soybean seeds; 1 month after treatment) was 5.46%, the “% increase in root vol.” value (Soybean seeds; 1 month after treatment) was 2.86% and the “% increase in root length” value (Soybean seeds; 1 yr after treatment) was 37.92%. For the same substance, the “% increase in root vol.” value (Soybean seeds; 1 yr after treatment) was 34%, the “Root Vol.” value (Soybean seeds; [5]) was 0.468 cm^3 and the Root length (Soybean seeds; [5]) was 135* cm. For the same substance, the “Root Vol.” value (Soybean seeds; planted 1 yr after treatment) was 0.540* cm^3 and the Root length (Soybean seeds; planted 1 yr after treatment) was 159.3* cm.
